We go through one compound from patent US20230364273A1, “AGENT FOR DETECTING INTERACTION BETWEEN TISSUES AND ORGANS” (HAMAMATSU PHOTONICS K.K., priority 2020, published 2023).

The subject of this series is mitochondrial complex I (MC-I). As to the kind of experiment: PET measurement of the amount (SUV) of MC-I probe accumulated in each tissue and organ of type 2 diabetes model rats (Test Examples 1 and 2). The class given is in vivo. Particulars: brain, heart, brown adipocytes, pancreas, liver, kidneys; 5, 8, 16, 26 weeks of age; i.v. about 20 MBq; except brown adipocytes and kidneys at 5 weeks of age (FIG. 4). An excerpt:
Male Zucker Leprfa/Leprfa rats (hereinafter also referred to as “fatty rats”) that develop pathological conditions similar to type 2 diabetes of human adults and male Zucker Leprfa/+ rats (hereinafter also referred to as “lean rats”) as controls thereof were purchased from Charles River Laboratories Japan, Inc., and used for PET measurement at 5, 8, 16, and 26 weeks of age, and the amount of [^18F]BCPP-BF accumulated in each tissue and organ (brain, heart, kidneys, liver, and brown adipocytes (brown adipose tissue)) was measured.
The rats were anesthetized with isoflurane and fixed in a gantry of an animal PET camera (SHR-38000, manufactured by Hamamatsu Photonics K.K.). […]
After the completion of the PET measurement, a region of interest was set on the pancreas identified by an integrated PET image 40 to 60 minutes after the administration of D-[^11C]MT, and the amount of [^18F]BCPP-BF accumulated in the region of interest was calculated. Subsequently, the calculated accumulation amount was normalized by the amount of radioactivity administered and the body weight of each individual and defined as an amount (amount (SUV) of radioactivity accumulated) of [^18F]BCPP-BF accumulated in the pancreas. […] The amount (SUV) of radioactivity accumulated in the brain was calculated by excising the brains from the rats immediately after the PET measurement. […]

On to `CC(C)(C)n1ncc(OCc2ccc(OCCCC[18F])nc2)c(Cl)c1=O` [[^18F]BCPP-BF], for which the “accumulation amount (SUV) in each tissue and organ, fatty rats versus lean rats” value is “significantly lower”.
